Assay results taken from ChEMBL document CHEMBL1137421, “3-Benzimidazol-2-yl-1H-indazoles as potent c-ABL inhibitors” (Bioorg Med Chem Lett, 2006).
pEC50, pIC50: −log10 of the molar value.

Assays:
[1] = molecular target: Tyrosine-protein kinase ABL1 (Homo sapiens, UniProt P00519)
Bcr/Abl fusion protein = Bcr/Abl fusion protein (Homo sapiens, UniProt P00519); type: functional, cell-based, K562
Sequence of Bcr/Abl fusion protein (P00519 whole entry, the tested form may be a part): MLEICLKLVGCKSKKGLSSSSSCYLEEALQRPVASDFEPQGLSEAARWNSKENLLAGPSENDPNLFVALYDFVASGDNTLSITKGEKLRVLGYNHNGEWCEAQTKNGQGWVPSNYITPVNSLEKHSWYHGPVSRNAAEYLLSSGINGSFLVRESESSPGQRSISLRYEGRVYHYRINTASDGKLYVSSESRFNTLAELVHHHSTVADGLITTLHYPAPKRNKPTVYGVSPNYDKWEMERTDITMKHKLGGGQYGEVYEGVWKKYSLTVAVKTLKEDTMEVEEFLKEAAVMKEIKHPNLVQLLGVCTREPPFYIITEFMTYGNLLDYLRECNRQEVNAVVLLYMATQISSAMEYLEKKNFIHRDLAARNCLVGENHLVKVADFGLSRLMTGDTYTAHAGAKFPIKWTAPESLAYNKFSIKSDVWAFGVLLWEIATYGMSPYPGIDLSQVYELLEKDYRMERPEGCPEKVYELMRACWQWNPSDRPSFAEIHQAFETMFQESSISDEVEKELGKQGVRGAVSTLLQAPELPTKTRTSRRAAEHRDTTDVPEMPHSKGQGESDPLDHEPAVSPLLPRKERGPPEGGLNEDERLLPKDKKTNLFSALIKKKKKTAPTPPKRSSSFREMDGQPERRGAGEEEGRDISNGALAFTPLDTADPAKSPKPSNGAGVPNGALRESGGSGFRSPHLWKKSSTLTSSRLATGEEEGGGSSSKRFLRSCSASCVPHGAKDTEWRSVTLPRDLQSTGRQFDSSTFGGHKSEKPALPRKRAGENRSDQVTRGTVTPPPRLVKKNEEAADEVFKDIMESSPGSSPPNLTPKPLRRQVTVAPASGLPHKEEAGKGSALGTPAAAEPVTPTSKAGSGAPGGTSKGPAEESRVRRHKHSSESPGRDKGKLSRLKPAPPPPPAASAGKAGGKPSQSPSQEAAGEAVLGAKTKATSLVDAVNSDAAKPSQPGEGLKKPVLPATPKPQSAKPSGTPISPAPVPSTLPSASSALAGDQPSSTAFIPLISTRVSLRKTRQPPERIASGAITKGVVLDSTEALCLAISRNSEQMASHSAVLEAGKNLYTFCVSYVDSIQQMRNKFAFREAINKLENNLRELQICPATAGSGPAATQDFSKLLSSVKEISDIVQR
Sequence of Bcr/Abl fusion protein (P11274 whole entry, further chain, the tested form may be a part): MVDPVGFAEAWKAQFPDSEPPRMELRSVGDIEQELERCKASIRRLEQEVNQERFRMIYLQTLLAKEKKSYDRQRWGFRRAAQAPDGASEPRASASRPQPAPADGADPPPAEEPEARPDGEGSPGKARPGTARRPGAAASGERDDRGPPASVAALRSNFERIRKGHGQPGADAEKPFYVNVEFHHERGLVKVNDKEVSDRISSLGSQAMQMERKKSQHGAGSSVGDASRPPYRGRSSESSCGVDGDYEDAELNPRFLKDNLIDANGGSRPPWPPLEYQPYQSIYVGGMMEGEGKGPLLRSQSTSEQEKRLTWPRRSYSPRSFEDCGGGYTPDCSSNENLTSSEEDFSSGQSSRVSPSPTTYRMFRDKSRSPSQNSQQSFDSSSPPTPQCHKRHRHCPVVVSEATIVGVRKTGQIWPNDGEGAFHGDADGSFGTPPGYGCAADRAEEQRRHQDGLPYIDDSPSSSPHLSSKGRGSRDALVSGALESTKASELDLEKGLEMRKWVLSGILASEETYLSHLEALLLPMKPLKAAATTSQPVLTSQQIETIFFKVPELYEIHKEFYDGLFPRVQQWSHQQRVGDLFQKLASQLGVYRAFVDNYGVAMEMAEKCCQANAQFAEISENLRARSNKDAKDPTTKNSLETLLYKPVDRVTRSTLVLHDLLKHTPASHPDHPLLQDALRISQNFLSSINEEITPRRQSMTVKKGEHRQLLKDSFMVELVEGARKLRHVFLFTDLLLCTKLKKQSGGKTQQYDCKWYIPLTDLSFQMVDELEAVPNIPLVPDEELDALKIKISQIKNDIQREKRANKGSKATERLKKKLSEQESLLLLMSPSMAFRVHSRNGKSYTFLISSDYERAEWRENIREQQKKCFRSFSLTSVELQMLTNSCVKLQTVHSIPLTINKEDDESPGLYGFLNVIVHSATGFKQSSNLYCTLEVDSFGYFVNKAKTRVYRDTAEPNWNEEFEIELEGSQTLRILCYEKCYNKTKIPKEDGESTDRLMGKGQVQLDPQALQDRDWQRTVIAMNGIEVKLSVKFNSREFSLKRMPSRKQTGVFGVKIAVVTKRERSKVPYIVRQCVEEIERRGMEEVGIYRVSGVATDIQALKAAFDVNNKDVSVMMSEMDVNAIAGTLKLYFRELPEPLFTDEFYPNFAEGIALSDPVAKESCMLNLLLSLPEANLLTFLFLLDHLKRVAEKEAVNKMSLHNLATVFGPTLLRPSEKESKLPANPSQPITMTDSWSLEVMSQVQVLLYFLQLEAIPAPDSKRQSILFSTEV

Sequence of Tyrosine-protein kinase ABL1 (P00519 whole entry, the tested form may be a part): as the sequence (P00519 whole entry, the tested form may be a part) above

Compound | pIC50 [1] | pEC50 (Bcr/Abl fusion protein)
COc1ccc(Oc2ccc3[nH]nc(-c4nc5cc(N6CCC(N7CCCCC7)CC6)ccc5[nH]4)c3c2)cc1 | 6.66 | –
COc1cccc(Oc2ccc3[nH]nc(-c4nc5cc(N6CCC(N7CCCCC7)CC6)ccc5[nH]4)c3c2)c1 | 7.22 | –
O=C(Nc1ccc2[nH]nc(-c3nc4ccc(N5CCC(N6CCCCC6)CC5)cc4[nH]3)c2c1)c1ccco1 | 6.82 | 6.25
c1ccc(COc2ccc3[nH]nc(-c4nc5ccc(N6CCC(N7CCCCC7)CC6)cc5[nH]4)c3c2)cc1 | 7.22 | 6.01
COc1ccc2[nH]nc(-c3nc4ccc(N5CCC(N6CCCCC6)CC5)cc4[nH]3)c2c1 | 6.64 | –
c1ccc2c(-c3nc4ccc(N5CCC(N6CCCCC6)CC5)cc4[nH]3)n[nH]c2c1 | 6.22 | –
c1ccc(COc2cc3[nH]nc(-c4nc5cc(N6CCC(N7CCCCC7)CC6)ccc5[nH]4)c3cc2OCc2ccccc2)cc1 | 6.05 | –
CC(C)(C)NC(=O)Nc1ccc2[nH]nc(-c3nc4ccc(N5CCC(N6CCCCC6)CC5)cc4[nH]3)c2c1 | 7.52 | 6.44
COc1ccccc1Oc1ccc2[nH]nc(-c3nc4cc(N5CCC(N6CCCCC6)CC5)ccc4[nH]3)c2c1 | 7.70 | –
c1ccc(COc2ccc3c(-c4nc5ccc(N6CCC(N7CCCCC7)CC6)cc5[nH]4)n[nH]c3c2)cc1 | 6.70 | –
c1ccc(CNc2ccc3[nH]nc(-c4nc5ccc(N6CCC(N7CCCCC7)CC6)cc5[nH]4)c3c2)cc1 | 6.89 | 5.74
c1csc(CNc2ccc3[nH]nc(-c4nc5cc(N6CCC(N7CCCCC7)CC6)ccc5[nH]4)c3c2)n1 | 8.00 | 8.00
COc1cc2[nH]nc(-c3nc4ccc(N5CCC(N6CCCCC6)CC5)cc4[nH]3)c2cc1OCc1ccccc1 | 8.52 | –
c1ccc(Oc2ccc3[nH]nc(-c4nc5ccc(N6CCC(N7CCCCC7)CC6)cc5[nH]4)c3c2)cc1 | 7.52 | –
c1coc(CNc2ccc3[nH]nc(-c4nc5cc(N6CCC(N7CCCCC7)CC6)ccc5[nH]4)c3c2)c1 | 7.22 | 7.52
c1ccc(CN2CCC(Nc3ccc4[nH]nc(-c5nc6cc(N7CCC(N8CCCCC8)CC7)ccc6[nH]5)c4c3)CC2)cc1 | 8.15 | 7.15
